Values of other authors, collected in US12036321B2, “Compositions and methods for treating or preventing multiple organ dysfunction syndrome” (VIVACELLE BIO, INC., priority 2020, dated 2024).
Like-named read-outs stand apart in the source and are kept apart here. Each block holds one compound with its values, some of them ahead of it.

Columns and labels:
[1] = test system: Nitric oxide synthase (NOS); conditions: nitric oxide synthase inhibitor, Lopez et al., Crit. Care Med. 2004
[2] = test system: human neutrophils; conditions: Simpkins et al., Life Sci 1985
[3] = Battion et al., J Amer Oil Chem Soc 1968

SMILES: CN=C(N)NCCC[C@H](N)C(=O)O.Cl [546C88]
outcome of trial in patients with septic shock [1]: increased mortality and multiple organ failure
outcome of trial in patients with septic shock ([1]; listed as 54C88): increased mortality

SMILES: C=CCN1CC[C@]23c4c5ccc(O)c4O[C@H]2C(=O)CC[C@]3(O)[C@H]1C5 [(+) naloxone]
concentration range that produces anti-inflammatory effect [2]: 10^−5-10^−4 M

solubility of oxygen in lipid relative to water [3]: 4.41 times
SMILES: O=O [Oxygen]
